Assays:
GC1 receptor [1] = assay: calcium influx stimulated by excitatory amino acids in primary cultures of cerebellar granule cells (GC1); type: cell-based, rat; settings: for Calcium Influx % of stimulation by 10 μM GLU: 10 μM GLU (Table 2)
Protocol: (§1) Studies described hereinbelow on the usefulness of the compounds were performed on primary cultures of cerebellar granule cells prepared from 8-day old rats according to the procedures as set forth in Wroblewski et al., Neuropharmacology 24(9), 919-921 (1985). These cultures are characterized by the presence of four subtypes of excitatory amino acid receptors, classified on the basis of the coupling of their recognition sites to specific signal transduction systems, as well as according to the pharmacology of their recognition sites. The classification distinguishes between excitatory amino acid recognition sites coupled with PI hydrolysis (Gp) and those coupled with the activation of Ca^2+ (GC). This is disclosed in greater detail in Wroblewski et al. Proc. Natl. Acad. Sci. […], 5068-5072 (1987) GP1 and GC1 receptors are activated by glutamate, aspartate, N-methyl-D-aspartate (NMDA), antagonized by 2-amino-5-phosphonovalerate (APV), and inhibited by Mg^2+ . These two receptor subtypes correspond to the NMDA receptor, however, two distinct receptors must be postulated on the basis of their signal transducing mechanisms. The GP2 receptor is activated by glutamate and quisqualate, and is insensitive to Mg^2 + and APV. The GC2 receptor is activated by kainate and preferentially antagonized by cis-piperidine-2,3-dicarboxylate. The GC2 receptor is also insensitive to Mg^2+ inhibition. These two receptors correspond to the quisqualate and kainate receptors, respectively.
(§2) Cis-azetidine-2,4-dicarboxylic acid and derivatives selectively potentiate signal transduction at the GC1 and GP1 receptors. Referring to Table 1 the influx of calcium stimulated by NMDA, GLU, ASP and […] acting at the GC1 receptor is potentiated by cis-azetidine-2,4-dicarboxylic acid, while the action of KAIN at the GC2 receptor is not affected.

GC1 receptor [2] = assay: calcium influx stimulated by GLU in the absence and presence of Az5; type: cell-based, rat
Protocol: as §1
Azxetidines increase the potency but not the efficacy of GLU action at the GC1 receptor. […] This indicates a 7-fold potentiation of the action of GLU.

GP1 receptor = assay: PI hydrolysis stimulated by GLU in cerebellar granule cells; type: cell-based, rat; settings: 20 μM GLU (Table 2); * = antagonistic activity
Protocol: as §1, §2

GC1 receptor [3] = assay: inhibition of ASP-stimulated calcium influx by phencyclidine and its prevention; type: cell-based, rat
Protocol: as §1
(§3) Phencyclidine (PCP), once used as an anaesthetic, produces strong psychotropic effects manifested in humans by a state of sensory isolation, hallucinations and confusional states. It is one of the most widely abused drugs in the United States. One of the possible mechanisms of action of PCP involves the noncompetitive inhibition of the signal transduction at excitatory amino acid receptors, through allosteric interaction at a site distinct from the primary transmitter site (see Proc. Natl. Acad. Sci. USA discussed above).

NMDA receptor subtype [4] = assay: cGMP content in the cerebellum after icv injection of NMDA; type: in vivo, rat; set-up: cGMP: unit not given here
Protocol: The action of the NMDA receptor subtype can be estimated in vivo by measuring the changes in the content of cyclic GMP (cGMP) in the rat cerebellum after intracerebroventricular injections of NMDA. […] In terms of its pharmacology and of its mechanism of signal transduction the active receptor in the above conditions can be compared to the CC1 reporter measured in cultures of cerebellar granule cells.
In two series of experiments rats were injected icv with NMDA together with or without cis-azetidine-2,4-dicarboxylic acid.

binding site for PCP = assay: [^3 H]PCP radioligand binding; settings: radioligand binding studies
Excerpt: as §3

GC2 receptor = assay: calcium influx stimulated by kainate at the GC2 receptor in cerebellar granule cells; type: cell-based, rat
Protocol: as §1, with “These two receptors correspond to the quisqualate and kainate receptors, respectively.” left out

NMDA receptor subtype [5] = settings: icv NMDA; cited from earlier work

COC(=O)[C@@H]1C[C@H](C(=O)OC)N1 [Az7, cis-azetidine-2,4-dicarboxylic acid dimethyl ester]
% activity (potentiation of calcium influx) (GC1 receptor [1]; agonist Glu 50 μM (Table 3)): 68%

O=C(O)[C@@H]1C[C@H](C(=O)O)N1 [Az5, cis-azetidine-2,4-dicarboxylic acid]
potentiation of the action of GLU (GC1 receptor [2]; 50 μM Az5, from EC50 of GLU): 7 fold | PI hydrolysis % of stimulation by 20 μM GLU (GP1 receptor): 124% | ASP-stimulated calcium influx (GC1 receptor [3]; ASP 50 μM + Az5 50 μM, PCP 20 nM): 57.2 ± 3.2 nmol ^45 Ca^2+ /mg protein | ASP-stimulated calcium influx (GC1 receptor [3]; ASP 50 μM + Az5 50 μM, PCP 50 nM): 32.2 ± 1.3 nmol ^45 Ca^2+ /mg protein | ASP-stimulated calcium influx (GC1 receptor [3]; ASP 50 μM + Az5 50 μM, PCP 100 nM): 13.3 ± 0.3 nmol ^45 Ca^2+ /mg protein | ASP-stimulated calcium influx (GC1 receptor [3]; ASP 50 μM + Az5 50 μM, no PCP): 64.5 ± 2.6 nmol ^45 Ca^2+ /mg protein | action of PCP on ASP-stimulated signal transduction (GC1 receptor [3]; with PCP): exhibits the ability to decrease the action of PCP on ASP-stimulated signal transduction | cGMP (NMDA receptor subtype [4]; 5 min, Az5 2 μg): 6.8 ± 0.8 | cGMP % Control (NMDA receptor subtype [4]; 5 min, Az5 2 μg): 142 % Control | cGMP (NMDA receptor subtype [4]; 5 min, NMDA + Az5 together): 16.1 + 2.9 | cGMP % Control (NMDA receptor subtype [4]; 5 min, NMDA + Az5 together): 334 % Control | cGMP (NMDA receptor subtype [4]; 10 min, Az5 10 μg): 14.9 ± 1.3 | cGMP % Control (NMDA receptor subtype [4]; 10 min, Az5 10 μg): 192 % Control | cGMP (NMDA receptor subtype [4]; 10 min, NMDA + Az5 together): 16.5 + 2.8 | cGMP % Control (NMDA receptor subtype [4]; 10 min, NMDA + Az5 together): 211 % Control | effect on action of endogenous receptor agonist and injected NMDA (NMDA receptor subtype [4]; both series): potentiated the action of the endogenous receptor agonist as well as the action of injected NMDA | displacement of specific [^3 H]PCP binding (binding site for PCP): failed to displace the specific binding of [^3 H]PCP | Calcium Influx % of stimulation by 10 μM GLU (GC1 receptor [1]): 207% | effect on calcium influx stimulated by NMDA, GLU, ASP and QUIS (GC1 receptor [1]; GC1 receptor): potentiated | % activity (potentiation of calcium influx) (GC1 receptor [1]; agonist Asp 10 μM (Table 3)): 196% | % activity (potentiation of calcium influx) (GC1 receptor [1]; agonist Asp 20 μM (Table 3)): 141% | Percent Activity (potentiation of calcium influx) (GC1 receptor [1]; agonist Aspartate (ASP) 20 μM): 144% | % activity (potentiation of calcium influx) (GC1 receptor [1]; agonist Glu 10 μM (Table 3)): 207% | % activity (potentiation of calcium influx) (GC1 receptor [1]; agonist Glu 20 μM (Table 3)): 157% | Percent Activity (potentiation of calcium influx) (GC1 receptor [1]; agonist Glutamate (GLU) 20 μM): 169% | Percent Activity (potentiation of calcium influx) (GC1 receptor [1]; agonist NMDA 20 μM): 188% | Percent Activity (potentiation of calcium influx) (GC1 receptor [1]; agonist Quisqualate (QUIS) 20 μM): 124% | effect on the action of KAIN (GC2 receptor; GC2 receptor): not affected | Percent Activity (potentiation of calcium influx) (GC2 receptor; agonist Kainate 20 μM): 104%

c1ccc(C2(N3CCCCC3)CCCCC2)cc1 [PCP, phencyclidine, reference compound]
ASP-stimulated calcium influx (GC1 receptor [3]; ASP 50 μM, PCP 20 nM): 23.0 ± 1.7 nmol ^45 Ca^2+ /mg protein | ASP-stimulated calcium influx (GC1 receptor [3]; ASP 50 μM, PCP 50 nM): 9.2 ± 0.5 nmol ^45 Ca^2+ /mg protein | ASP-stimulated calcium influx (GC1 receptor [3]; ASP 50 μM, PCP 100 nM): 0.7 ± 0.1 nmol ^45 Ca^2+ /mg protein

CN[C@H](CC(=O)O)C(=O)O [NMDA, N-methyl-D-aspartate, reference compound]
cGMP (NMDA receptor subtype [4]; 5 min, NMDA 2 μg): 5.6 ± 0.8 | cGMP % Control (NMDA receptor subtype [4]; 5 min, NMDA 2 μg): 136 % Control | cGMP (NMDA receptor subtype [4]; 10 min, NMDA 1 μg): 10.5 ± 2.3 | cGMP % Control (NMDA receptor subtype [4]; 10 min, NMDA 1 μg): 135 % Control

N[C@@H](CC(=O)O)C(=O)O [ASP, Aspartate, reference compound]
ASP-stimulated calcium influx (GC1 receptor [3]; ASP 50 μM, no PCP): 31.3 ± 3.4 nmol ^45 Ca^2+ /mg protein

COC(=O)[C@H]1C[C@@H](C(=O)O)N1 (relative stereo) [Az11, cis-azetidine-2,4-dicarboxylic acid methyl ester]
% activity (potentiation of calcium influx) (GC1 receptor [1]; agonist Glu 10 μM (Table 3)): 122%

NC(=O)[C@@H]1C[C@H](C(N)=O)N1 [Az9, cis-azetidine-2,4-dicarboxamide]
% activity (potentiation of calcium influx) (GC1 receptor [1]; agonist Asp 20 μM (Table 3)): 106%

O=C(O)[C@H]1C[C@@H](CO)N1 (relative stereo) [Az13, cis-4-(hydroxymethyl)azetidine-2-carboxylic acid]
% activity (potentiation of calcium influx) (GC1 receptor [1]; agonist Asp 10 μM (Table 3)): 159%

N[C@@H](CCC(=O)O)C(=O)O [GLU, Glutamate]
EC50 (GC1 receptor [2]; in the absence of Az5): 51 µM | EC50 (GC1 receptor [2]; in the presence of 50 μM Az5): 7 µM

NC(CCCP(=O)(O)O)C(=O)O (centres unmarked) [APV, 2-amino-5-phosphonovaleric acid]
effect on increases in cGMP content induced by NMDA (NMDA receptor subtype [5]): antagonized

O=C(O)[C@H]1C[C@@H](C(=O)O)N1Cc1ccccc1 [Az10, cis-N-benzylazetidine-2,4-dicarboxylic acid]
% activity (potentiation of calcium influx) (GC1 receptor [1]; agonist Asp 10 μM (Table 3)): 121%

CC(C)(C)OC(=O)[C@H]1C[C@@H](C(=O)O)N1 (relative stereo) [Az3, cis-azetidine-2,4-dicarboxylic acid mono-t-butyl ester]
PI hydrolysis % of stimulation by 20 μM GLU (GP1 receptor): 125% | Calcium Influx % of stimulation by 10 μM GLU (GC1 receptor [1]): 141% | % activity (potentiation of calcium influx) (GC1 receptor [1]; agonist Glu 10 μM (Table 3)): 141% | % activity (potentiation of calcium influx) (GC1 receptor [1]; agonist Glu 20 μM (Table 3)): 136%

CC(C)(C)OC(=O)[C@H]1C[C@H](C(=O)O)N1 (relative stereo) [Az4, trans-azetidine-2,4-dicarboxylic acid mono-t-butyl ester]
PI hydrolysis % of stimulation by 20 μM GLU (GP1 receptor): 109% | Calcium Influx % of stimulation by 10 μM GLU (GC1 receptor [1]): 100%

COC(=O)[C@H]1C[C@H](C(=O)OC(C)(C)C)N1 (relative stereo) [Az2, trans-azetidine-2,4-dicarboxylic acid-t-butyl methyl ester]
Calcium Influx % of stimulation by 10 μM GLU (GC1 receptor [1]): 104%

O=C(O)[C@@H]1CCN1 [Az12, L-2-azetidinecarboxylic acid, reference compound]
% activity (potentiation of calcium influx) (GC1 receptor [1]; agonist Glu 20 μM (Table 3)): 110%

O=C(O)[C@H]1C[C@H](C(=O)O)N1 (relative stereo) [Az6, trans-azetidine-2,4-dicarboxylic acid]
PI hydrolysis % of stimulation by 20 μM GLU (GP1 receptor): 83% | Calcium Influx % of stimulation by 10 μM GLU (GC1 receptor [1]): 103%

NC(=O)[C@@H]1C[C@H](C(=O)O)N1 (relative stereo) [Az8, cis-4-carbamoylazetidine-2-carboxylic acid]
% activity (potentiation of calcium influx) (GC1 receptor [1]; agonist Asp 20 μM (Table 3)): 150%

COC(=O)[C@@H]1C[C@H](C(=O)OC(C)(C)C)N1 (relative stereo) [Az1, cis-azetidine-2,4-dicarboxylic acid t-butyl methyl ester]
PI hydrolysis % of stimulation by 20 μM GLU (GP1 receptor): 117% | Calcium Influx % of stimulation by 10 μM GLU (GC1 receptor [1]): 107% | % activity (potentiation of calcium influx) (GC1 receptor [1]; agonist Glu 10 μM (Table 3)): 107%

— patent US4946839A, “Azetidine derivatives, compositions and methods of treating” (priority 1987, dated 1990)
